The values that follow come from ChEMBL document CHEMBL5352428, “Covalent inhibitors of bacterial peptidoglycan biosynthesis enzyme MurA with chloroacetamide warhead” (Eur J Med Chem, 2022).

Series [1] concerns Escherichia coli. The experiment in a line: Antibacterial activity against Escherichia coli ATCC 25922 assessed as bacterial growth inhibition at <=128 ug/ml incubated for 24 hrs by broth dilution method. The class given is functional, organism-based. The settings on record: dose <= 128.0 µg/ml.
Series [2] concerns Staphylococcus aureus. The experiment in a line: Antibacterial activity against Staphylococcus aureus ATCC 29213 assessed as bacterial growth inhibition at <= 128 ug/ml incubated for 24 hrs by broth dilution method. The class given is functional, organism-based. The settings on record: dose <= 128.0 µg/ml. A general note: In broth dilution the organism is exposed to a series of concentrations in liquid medium.

A short description of series [3]: Thiol reactivity of compound at pH 7.4 buffer at 100 uM and measured for 4 hrs every 5 mins in presence of DTNB and TCEP by microplate reader analysis. The settings on record: pH 7.4, 4 h. The class given is physicochemical.
In series [4] the target is UDP-N-acetylglucosamine 1-carboxyvinyltransferase (Escherichia coli K-12) (UniProt P0A749). The experiment in a line: Inhibition of recombinant Escherichia coli MurA expressed in Escherichia coli NiCo21 assessed as residual activity using UNAG and PEP as substrate at 500 uM preincubated for 30 mins in presence of UNAG followed by PEP substrate addition and measured after 15 mins by malachite green based colorimetric assay. The settings on record: time 45.0 min.

Series [5] addresses UDP-N-acetylglucosamine 1-carboxyvinyltransferase (Escherichia coli K-12, UniProt P0A749). The experiment in a line: Inhibition of recombinant Escherichia coli MurA expressed in Escherichia coli NiCo21 using UNAG and PEP as substrate preincubated for 30 mins in presence of UNAG followed by PEP substrate addition and measured after 15 mins by malachite green based colorimetric assay.

Series [6] deals with UDP-N-acetylglucosamine 1-carboxyvinyltransferase (Escherichia coli K-12) (UniProt P0A749). The experiment in a line: Irreversible inhibition of recombinant Escherichia coli MurA expressed in Escherichia coli NiCo21 using UNAG and PEP as substrate assessed as second-order rate constant for enzyme inactivation, ratio of Kinact/Ki preincubated for 30 mins in presence of UNAG followed by 100 fold dilution and PEP substrate addition and measured after 15 mins by malachite green based colorimetric assay. The settings on record: time 45.0 min.

Active and inactive are the calls of the source. No cut-off for these calls is given here.

Chain of UDP-N-acetylglucosamine 1-carboxyvinyltransferase (P0A749 whole entry): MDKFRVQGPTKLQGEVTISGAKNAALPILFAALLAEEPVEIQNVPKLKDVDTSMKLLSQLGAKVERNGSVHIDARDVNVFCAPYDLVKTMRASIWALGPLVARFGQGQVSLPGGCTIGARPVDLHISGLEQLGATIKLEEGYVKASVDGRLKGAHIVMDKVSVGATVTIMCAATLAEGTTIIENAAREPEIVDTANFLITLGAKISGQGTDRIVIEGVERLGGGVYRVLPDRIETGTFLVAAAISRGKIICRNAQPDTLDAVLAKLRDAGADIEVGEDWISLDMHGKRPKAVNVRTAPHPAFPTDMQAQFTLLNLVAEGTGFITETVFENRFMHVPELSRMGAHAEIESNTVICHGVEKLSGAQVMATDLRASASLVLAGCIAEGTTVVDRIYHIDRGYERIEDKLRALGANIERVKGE
Chain of UDP-N-acetylglucosamine 1-carboxyvinyltransferase (Escherichia coli K-12) (P0A749 whole entry): as above

As to `O=C(CCl)NC1CCCCC1`, the result in series [1] and in series [2] was inactive. The Drug metabolism entry in series [3] was “Metabolite_Notdetected”. The Activity in series [4] worked out at 74%.
As to `O=C(CCl)N1CCN(c2ccccc2)CC1`, the outcome in series [1] and in series [2] was inactive. Moreover, the Activity in series [4] amounted to 90%.
As to `O=C(CCl)N1CCc2ccccc2C1`, the result in series [1] and in series [2] was inactive. For the same compound, the Drug metabolism entry in series [3] was “Metabolite_Detected”. In series [4], the Activity is 70%.
As for `O=C(CCl)Nc1ccc2ccccc2c1`, the outcome in series [1] and in series [2] was inactive. Moreover, the Drug metabolism entry in series [3] is reported as “Metabolite_Detected”. In addition, the Activity in series [4] amounted to 83%.
For `O=C(CCl)N1CCN(CC(=O)N2CCCCC2)CC1`, the result in series [1] and in series [2] was inactive. The Drug metabolism entry in series [3] is given as “Metabolite_Detected”. Moreover, in series [4], the Activity was found to be 81%.
In the case of `COc1cc(NC(=O)CCl)cc(OC)c1OC`, the outcome in series [1] and in series [2] was inactive. For the same compound, the Drug metabolism entry in series [3] is given as “Metabolite_Detected”. In series [4], the Activity was found to be 92%.
For the compound `O=C(CCl)Nc1ccc(-c2ncco2)cc1`, the outcome in series [1] and in series [2] was inactive. Moreover, the Drug metabolism entry in series [3] is recorded as “Metabolite_Detected”. In addition, in series [4], the Activity was 71%.
In the case of `CCOC(=O)C1CCN(C(=O)CCl)CC1`, the result in series [1] and in series [2] was inactive. Moreover, the Drug metabolism entry in series [3] is “Metabolite_Detected”. Further, the Activity in series [4] was 100%.
Turning to `Cc1ccc(S(=O)(=O)NC(=O)CC2CCN(C(=O)CCl)CC2)cc1`, the result in series [1] and in series [2] was inactive. Further, in series [5], the IC50 – broadly, the concentration at which inhibition is half-maximal – was determined as 137 µM. The Drug metabolism entry in series [3] is given as “Metabolite_Detected”. Besides, the Ratio in series [6] is 2.79 10^-4/µM/min.
For the compound `O=C(CCl)N1CCC(COP(=O)(Oc2ccccc2)Oc2ccccc2)C1` (stereo unspecified), the result in series [1] and in series [2] was inactive. For the same compound, the IC50 in series [5] came to 311 µM. In addition, in series [3], the Drug metabolism entry is recorded as “Metabolite_Detected”.
For `O=C(CCl)N1CCOCC1`, the result in series [1] and in series [2] was inactive. For the same compound, the Drug metabolism result in series [3] is given as “Metabolite_Detected”. Also, in series [4], the Activity worked out at 87%.
`O=C(O)C1CCN(C(=O)CCl)CC1`: the outcome in series [1] and in series [2] was inactive. In addition, in series [3], the Drug metabolism result is “Metabolite_Detected”. Further, the Activity in series [4] amounted to 95%.
Take `O=C(CCl)Nc1ccc(C(F)(F)F)cc1`: the result in series [1] and in series [2] was inactive. Moreover, the Drug metabolism entry in series [3] is given as “Metabolite_Detected”. Moreover, in series [4], the Activity was 77%.
For the compound `CCCCOc1ccc(NC(=O)CCl)cc1`, the outcome in series [1] and in series [2] was inactive. In addition, the Drug metabolism result in series [3] is listed as “Metabolite_Detected”. Further, in series [4], the Activity is 100%.
Consider `CC(C)CNC(=O)CCl`, for which the result in series [1] and in series [2] was inactive. For the same compound, in series [3], the Drug metabolism entry is recorded as “Metabolite_Notdetected”. The Activity in series [4] worked out at 90%.
For the compound `CC(C)(C)OC(=O)NC1CCN(C(=O)CCl)CC1`, the outcome in series [1] and in series [2] was inactive. Further, the Drug metabolism entry in series [3] is “Metabolite_Detected”. The Activity in series [4] is 61%.
As to `CCOC(=O)C1CCCN(C(=O)CCl)C1` (stereo unspecified), the outcome in series [1] and in series [2] was inactive. Besides, the Drug metabolism result in series [3] is recorded as “Metabolite_Detected”. For the same compound, the Activity in series [4] is 100%.
For the compound `O=C(CCl)Nc1cccc2ccccc12`, the outcome in series [1] and in series [2] was inactive. Besides, the Drug metabolism entry in series [3] is given as “Metabolite_Detected”. Also, the Activity in series [4] is 81%.
With `O=C(CCl)N1CCC(Sc2nnc(-c3ccccc3)o2)CC1`, the outcome in series [1] and in series [2] was inactive. Also, in series [5], the half-maximal inhibitory concentration (IC50) worked out at 162 µM. The Drug metabolism entry in series [3] is reported as “Metabolite_Detected”.
In the case of `O=C(CCl)N1CCC(COP(=O)(O)O)C1` (stereo unspecified), the outcome in series [1] and in series [2] was inactive. Besides, the Drug metabolism result in series [3] is given as “Metabolite_Detected”. Further, the Activity in series [4] amounted to 47%.
With `Cc1cc(NC(=O)CCl)on1`, the outcome in series [1] and in series [2] was inactive. The Drug metabolism entry in series [3] is recorded as “Metabolite_Detected”. The Activity in series [4] is 71%.
Regarding `COc1ccc(N2CCN(C(=O)CCl)CC2)cc1`, the result in series [1] and in series [2] was inactive. In series [3], the Drug metabolism entry is listed as “Metabolite_Detected”. Further, the Activity in series [4] worked out at 77%.
In the case of `O=C(O)C1CCCN(C(=O)CCl)C1` (stereo unspecified), the outcome in series [1] and in series [2] was inactive. Besides, in series [3], the Drug metabolism result was “Metabolite_Detected”. In series [4], the Activity worked out at 75%.
Turning to `O=C(CCl)N1CCCC(OP(=O)(Oc2ccccc2)Oc2ccccc2)C1` (stereo unspecified), the outcome in series [1] and in series [2] was inactive. For the same compound, in series [5], the IC50 amounted to 543 µM. Also, in series [3], the Drug metabolism entry was “Metabolite_Detected”.
On to `O=C(CCl)N1CCCc2ccccc21`, for which the result in series [1] and in series [2] was inactive. In series [3], the Drug metabolism result is “Metabolite_Detected”. Moreover, the Activity in series [4] came out at 73%.
Turning to `O=C(CCl)NC1CCCC(OP(=O)(Oc2ccccc2)Oc2ccccc2)C1` (stereo unspecified), the result in series [1] and in series [2] was inactive. The Drug metabolism entry in series [3] was “Metabolite_Detected”. Besides, in series [4], the Activity worked out at 89%.
With `O=C(CCl)N1CCN(Cc2ccc3c(c2)OCO3)CC1`, the result in series [1] and in series [2] was inactive. The Drug metabolism result in series [3] is reported as “Metabolite_Detected”. For the same compound, the Activity in series [4] came out at 99%.
`O=C(CCl)N1CCC(Sc2nccs2)CC1`: the result in series [1] and in series [2] was inactive. Further, the IC50 in series [5] came to 195 µM. Also, in series [3], the Drug metabolism result is listed as “Metabolite_Detected”. Further, the Ratio in series [6] is 7.13 10^-3/µM/min.
With `CC1CCCN(C(=O)CCl)C1` (stereo unspecified), the outcome in series [1] and in series [2] was inactive. Also, in series [3], the Drug metabolism result is “Metabolite_Detected”. Moreover, the Activity in series [4] was 80%.
With `NC1CCN(C(=O)CCl)CC1`, the outcome in series [1] and in series [2] was inactive. For the same compound, the Drug metabolism result in series [3] is on record as “Metabolite_Detected”. The Activity in series [4] was determined as 82%.
`O=C(CCl)NC12CC3CC(CC(C3)C1)C2`: the result in series [1] and in series [2] was inactive. Further, in series [3], the Drug metabolism entry is reported as “Metabolite_Notdetected”. Also, in series [4], the Activity came to 77%.
Turning to `COc1ccc2nc(SC3CCN(C(=O)CCl)CC3)[nH]c2n1`, the result in series [1] and in series [2] was inactive. The IC50 in series [5] was 172 µM. Besides, the Drug metabolism entry in series [3] was “Metabolite_Detected”.
With `O=C(CCl)N1CCCCC1`, the result in series [1] and in series [2] was inactive. In addition, in series [3], the Drug metabolism entry is “Metabolite_Detected”. Besides, the Activity in series [4] worked out at 79%.
With `CCOC(=O)N1CCN(C(=O)CCl)CC1`, the outcome in series [1] and in series [2] was inactive. Besides, in series [3], the Drug metabolism entry is listed as “Metabolite_Detected”. Besides, the Activity in series [4] is 95%.
On to `N#Cc1ccc(NC(=O)CCl)cc1`, for which the outcome in series [1] and in series [2] was inactive. Moreover, in series [3], the Drug metabolism entry is “Metabolite_Detected”. Further, the Activity in series [4] came to 89%.
`O=C(CCl)NC1CCC2CCCCC2C1` (stereo unspecified): the outcome in series [1] and in series [2] was inactive. In addition, the Drug metabolism result in series [3] is “Metabolite_Notdetected”. Moreover, in series [4], the Activity was found to be 79%.
Take `O=C(CCl)Nc1ccncc1`: the result in series [1] and in series [2] was inactive. Moreover, the Drug metabolism result in series [3] was “Metabolite_Detected”. The Activity in series [4] is 77%.
Regarding `COC(=O)c1ccc(NC(=O)CCl)o1`, the result in series [1] and in series [2] was inactive. The Drug metabolism result in series [3] is recorded as “Metabolite_Detected”. The Activity in series [4] is 75%.
As for `O=C(CCl)N1CCC(c2ccccc2)CC1`, the outcome in series [1] and in series [2] was inactive. The Drug metabolism entry in series [3] was “Metabolite_Detected”. Moreover, the Activity in series [4] worked out at 71%.
In the case of `O=C(CCl)Nc1ccc(-c2nnn[nH]2)cc1`, the outcome in series [1] and in series [2] was inactive. Besides, the Drug metabolism entry in series [3] is recorded as “Metabolite_Detected”. Further, the Activity in series [4] worked out at 100%.
